Here are results for 20 molecules from patent publication US20110105555A1, “SUBSTITUTED N-IMIDAZO[2,1-B]THIAZOLE-5-SULFONAMIDE DERIVATIVES AS 5-HT6 LIGANDS” (priority 2008, published 2011).

Where a name gives a salt, the structure may show the parent alone.

For assay [1], the target named is T1, 5HT6-human recombinant receptor (Homo sapiens, UniProt P50406). The assay is described as follows: Binding to serotonin receptor 5-HT6 ([3H]-LSD radioligand, HEK-293 cell membranes). The note with it: [3H]-LSD 2.7 nM, 60 minutes at 37° C., tests in triplicate. Set-up: purchased Receptor Biology; host or cells: HEK-293 cells (membranes). On the procedure: Binding to Serotonin Receptor 5ht6
T1 sequence (P50406 whole entry): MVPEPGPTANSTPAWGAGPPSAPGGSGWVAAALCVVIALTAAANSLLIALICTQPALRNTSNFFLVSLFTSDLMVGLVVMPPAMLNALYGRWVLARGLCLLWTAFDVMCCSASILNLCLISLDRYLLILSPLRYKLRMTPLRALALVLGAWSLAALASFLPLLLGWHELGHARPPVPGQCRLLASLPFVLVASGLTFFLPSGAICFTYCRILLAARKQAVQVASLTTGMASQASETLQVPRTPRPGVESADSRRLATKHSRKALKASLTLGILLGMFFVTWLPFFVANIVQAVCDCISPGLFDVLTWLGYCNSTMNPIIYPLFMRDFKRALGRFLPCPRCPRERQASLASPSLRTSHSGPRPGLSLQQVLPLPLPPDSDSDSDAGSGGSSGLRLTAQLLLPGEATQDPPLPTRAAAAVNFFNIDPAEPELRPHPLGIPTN
Cell membranes of HEK-293 cells expressing the 5HT6-human recombinant receptor were supplied by Receptor Biology. In said membranes the receptor concentration is 2.18 pmol/mg protein and the protein concentration is 9.17 mg/ml. The experimental protocol follows the method of B. L. Roth et al. [B. L. Roth et al., The Journal of Pharmacology and Experimental Therapeutics, 1994, 268, 1403] with the following slight changes. The respective part of the literature description is hereby incorporated by reference and forms part of the disclosure.
The commercial membrane is diluted (1:40 dilution) with the binding buffer: 50 mM Tris-HCl, 10 mM MgCl2, 0.5 mM EDTA (pH 7.4). The radioligand used is [^3H]-LSD at a concentration of 2.7 nM with a final volume of 200 μl. incubation is initiated by adding 100 μl of membrane suspension, (≈22.9 μg membrane protein), and is prolonged for 60 minutes at a temperature of 37° C. The incubation is ended by fast filtration in a Brandel Cell Harvester through fiber glass filters made by Schleicher & Schnell GF 3362 pretreated with a solution of polyethylenimine at 0.5%. The filters are washed three times with three milliliters of buffer Tris-HCl 50 mM pH 7.4. The filters are transferred to flasks and 5 ml of Ecoscint H liquid scintillation cocktail are added to each flask. The flasks are allowed to reach equilibrium for several hours before counting with a Wallac Winspectral 1414 scintillation counter. Non-specific binding is determined in the presence of 100 μM of serotonin, Tests were made in triplicate. The inhibition constants (Ki, nM) were calculated by non-linear regression analysis using the program EBDA/LIGAND described in Munson and Rodbard, Analytical Biochemistry, 1980, 107, 220, which is hereby incorporated by reference and forms part of the disclosure.

Assay [2] addresses T1, 5HT6-human recombinant receptor. The note with it: cited from earlier work.
The conditions of assay [3]: in vivo; cited from earlier work.

As usually defined, the Ki is a dissociation constant, usually derived from enzyme kinetics or from competition with a known ligand. As to `Cc1nc2cc(NS(=O)(=O)c3c(Cl)nc4sccn34)ccc2s1` [Compound 4, 6-Chloro-imidazo[2,1-b] thiazole-5-sulfonic acid (2-methyl-benzothiazol-5-yl)-amide], in assay [1], the Ki came to 14.5 nM.

`O=S(=O)(Nc1ccc2[nH]ncc2c1)c1c(Cl)nc2sccn12` [Compound 25, 6-Chloro-imidazo[2,1-b]thiazole-5-sulfonic acid (1H-indazol-5-yl)-amide hydrochloride]: the Ki in assay [1] turned out to be 5.7 nM.

For the molecule `CC(C)(C)OC(=O)n1ncc2cc(NS(=O)(=O)c3c(Br)nc4sccn34)ccc21` [Compound 60, 5-(6-Bromo-imidazo[2,1-b]thiazole-5-sulfonylamino)-indazole-1-carboxylic acid tert-butyl ester], in assay [1], the Ki was 6.6 nM.

On to `CC(=O)N1CCc2ccc(NS(=O)(=O)c3c(Cl)nc4sccn34)cc21` [Compound 20, 6-Chloro-imidazo[2,1-b]thiazole-5-sulfonic acid (1-acetyl-2,3-dihydro-1H-indol-6-yl)-amide], for which the Ki in assay [1] was 12.8 nM.

As to `O=S(=O)(Nc1ccc2[nH]ccc2c1)c1c(Br)nc2sccn12` [Compound 36, 6-Bromo-imidazo[2,1-b]thiazole-5-sulfonic acid (1H-indol-5-yl)-amide], in assay [1], the Ki came to 10 nM.

In the case of `CN(C)CCc1c[nH]c2ccc(NS(=O)(=O)c3ccc4c(Cl)cccc4c3)cc12` [Compound E-6837, 5-chloro-N-[3-(2-(dimethylamino)ethyl)-1H-indol-5-yl]naphthalene-2-sulphonamide], the “binding for the recombinant human 5-HT6 receptor” value in assay [2] was “selective and high affinity binding”. For the same molecule, in assay [3], the body weight result was “significant body weight loss” and the food intake entry is reported as “reduction in the food intake”.

`O=S(=O)(Nc1ccc2c(c1)NCC2)c1c(Cl)nc2sccn12` [Compound 34, 6-Chloro-imidazo[2,1-b]thiazole-5-sulfonic acid (2,3-dihydro-1H-indol-6-yl)-amide]: in assay [1], the inhibitory constant (Ki) is 7.4 nM.

On to `CN(C)c1ccc(NS(=O)(=O)c2c(Cl)nc3sccn23)cc1` [Compound 16, 6-Chloro-imidazo[2,1-b] thiazole-5-sulfonic acid (4-dimethylamino-phenyl)-amide], for which the Ki in assay [1] is 8.7 nM.

In the case of `O=C1CCc2ccc(NS(=O)(=O)c3c(Br)nc4sccn34)cc21` [Compound 41, 6-Bromo-imidazo[2,1-b]thiazole-5-sulfonic acid (3-oxo-indan-5-yl)-amide hydrochloride], the Ki in assay [1] was determined as 4.9 nM.

For the molecule `O=S(=O)(Nc1ccc2c(c1)CCCC2)c1c(Cl)nc2sccn12` [Compound 30, 6-Chloro-imidazo[2,1-b]thiazole-5-sulfonic acid (5,6,7,8-tetrahydro-naphthalen-2-yl)-amide], the Ki in assay [1] came out at 19 nM.

Regarding `CCN(CC)c1ccc(NS(=O)(=O)c2c(Cl)nc3sccn23)cc1` [Compound 32, 6-Chloro-imidazo[2,1-b]thiazole-5-sulfonic acid (4-diethylamino-phenyl)-amide hydrochloride], the inhibition constant (Ki) in assay [1] turned out to be 5.4 nM.

Regarding `O=S(=O)(Nc1ccc2c(c1)CCN2)c1c(Cl)nc2sccn12` [Compound 23, 6-Chloro-imidazo[2,1-b]thiazole-5-sulfonic acid (2,3-dihydro-1H-indol-5-yl)-amide hydrochloride], in assay [1], the Ki was 20 nM.

On to `CC(=O)N1CCc2ccc(NS(=O)(=O)c3c(Br)nc4sccn34)cc21` [Compound 38, 6-Bromo-imidazo[2,1-b]thiazole-5-sulfonic acid (1-acetyl-2,3-dihydro-1H-indol-6-yl)-amide], for which the Ki in assay [1] amounted to 37.2 nM.

As for `O=S(=O)(Nc1ccc2c(c1)COC2)c1c(Cl)nc2sccn12` [Compound 31, 6-Chloro-imidazo[2,1-b]thiazole-5-sulfonic acid (1,3-dihydro-isobenzo furan-5-yl)-amide], in assay [1], the Ki is 68 nM.

`Cn1ccc2cc(NS(=O)(=O)c3c(Cl)nc4sccn34)ccc21` [Compound 15, 6-Chloro-imidazo[2,1-b] thiazole-5-sulfonic acid (1methyl-1H-indol-5-yl)-amide]: in assay [1], the Ki is 23 nM.

As to `CC(=O)N1CCc2cc(NS(=O)(=O)c3c(Cl)nc4sccn34)ccc21` [Compound 19, 6-Chloro-imidazo[2,1-b]thiazole-5-sulfonic acid (1-acetyl-2,3-dihydro-1H-indol-5-yl)-amide], in assay [1], the inhibitory constant (Ki) was determined as 1.6 nM.

As for `O=C1CCc2ccc(NS(=O)(=O)c3c(Cl)nc4sccn34)cc21` [Compound 28, 6-Chloro-imidazo[2,1-b]thiazole-5-sulfonic acid (3-oxo-indan-5-yl)-amide], the Ki in assay [1] is 7.1 nM.

Regarding `CC(=O)N1CCc2cc(NS(=O)(=O)c3c(Br)nc4sccn34)ccc21` [Compound 37, 6-Bromo-imidazo[2,1-b]thiazole-5-sulfonic acid (1-acetyl-2,3-dihydro-1H-indol-5-yl)-amide], in assay [1], the Ki was found to be 1.3 nM.

Take `O=S(=O)(Nc1ccc2ncsc2c1)c1c(Cl)nc2sccn12` [Compound 3, 6-Chloro-imidazo[2,1-b] thiazole-5-sulfonic acid benzothiazol-6-ylamide]: the Ki in assay [1] amounted to 12.7 nM.

On to `O=S(=O)(Nc1ccc2c(c1)CCC2)c1c(Cl)nc2sccn12` [Compound 1, 6-Chloro-imidazo[2,1-b] thiazole-5-sulfonic acid indan-5-ylamide], for which the Ki in assay [1] came out at 11.1 nM.
